# Measurements from US4472304A, “(Amido)N-substituted bleomycins, salts thereof and process for preparation thereof” (Nippon Kayaku Kabushiki Kaisha, priority 1981, dated 1984).
# Key:
# [1] = tested on: pulmonary fibrosis; assay: Pulmonary toxicity (pulmonary fibrosis) in mice; conditions: for Incidence: Number of mice with pulmonary fibrosis (%) / Incidence: Number of mice with pulmonary fibrosis / Grade: Total score of pulmonary fibrosis/total number of samples / Grade: Total score of pulmonary fibrosis/total number of samples (%): ICR mice, 5 mg/kg i.p. once a day for 10 days; for Incidence: Number of mice with pulmonary fibrosis (%) / Incidence: Number of mice with pulmonary fibrosis: 5 weeks observation; for Incidence: Number of mice with pulmonary fibrosis: mice with fibrosis/total; for Grade: Total score of pulmonary fibrosis/total number of samples / Grade: Total score of pulmonary fibrosis/total number of samples (%): points 0, 1, 2, 4, 6; for Ratio (by comparison with "Bleomycin Complex"): versus Bleomycin Complex
# [2] = tested on: Mycobacterium smegmatis ATCC 607; assay: Antimicrobial activity against Mycobacterium smegmatis ATCC 607 (agar plate-cylinder); assay type: cell-based; conditions: standard bleomycin A2 (copper-free) assumed 1,000 mcg potency/mg
# Experimental: (§1) 2. ANT[…] MYC[…] ATCC 607 AND BACILLUS SUBTILIS
# (§2) The antimicrobial activity was tested against the captioned test organisms by the method of agar plate-cylinder. The activity was recorded on the assumption that the activity of standard sample of bleomycin A2 (copper-free form) is 1,000 mcg poteney/mg.
# [3] = tested on: Bacillus subtilis; assay: Antimicrobial activity against Bacillus subtilis (agar plate-cylinder); assay type: cell-based; conditions: standard bleomycin A2 (copper-free) assumed 1,000 mcg potency/mg
# Experimental: as §1, §2
SMILES,Incidence: Number of mice with pulmonary fibrosis (%) [1] [%],Incidence: Number of mice with pulmonary fibrosis [1],Grade: Total score of pulmonary fibrosis/total number of samples [1],Grade: Total score of pulmonary fibrosis/total number of samples (%) [1] [%],"Ratio (by comparison with ""Bleomycin Complex"") [1]",Antimicrobial potency of Cu-free compound against Mycobacterium smegmatis ATCC 607 [2] [mcg potency/mg],Antimicrobial potency of Cu-free compound against Bacillus subtilis [3] [mcg potency/mg]
"Cc1c(N)nc(C(CC(N)=O)NCC(N)C(=O)NC(C)C)nc1C(=O)NC(C(=O)NC(C)C(O)C(C)C(=O)NC(C(=O)NCCc1nc(-c2nc(C(=O)NCCCNC(C)c3ccccc3)cs2)cs1)C(C)O)C(OC1OC(CO)C(O)C(O)C1OC1OC(CO)C(O)C(OC(N)=O)C1O)c1cnc[nH]1 [Compound 21, 3-((S)-1'-phenylethyl)aminopropylamino-(amido)N--[isopropyl]-BLM]",38,3/8,5/24,21,0.27,11998,962
"Cc1c(N)nc(C(CC(N)=O)NCC(N)C(=O)NCCCNC(C)c2ccccc2)nc1C(=O)NC(C(=O)NC(C)C(O)C(C)C(=O)NC(C(=O)NCCc1nc(-c2nc(C(=O)NCCCNC(C)c3ccccc3)cs2)cs1)C(C)O)C(OC1OC(CO)C(O)C(O)C1OC1OC(CO)C(O)C(OC(N)=O)C1O)c1cnc[nH]1 [Compound 22, 3-((S)-1'-phenylethyl)aminopropylamino-(amido)N--[3-((S)-1'-phenylethyl)aminopropyl]-BLM]",13,1/8,1/21,4,0.05,28030,2800
"Cc1c(N)nc(C(CC(N)=O)NCC(N)C(=O)NCCN2CCNCC2)nc1C(=O)NC(C(=O)NC(C)C(O)C(C)C(=O)NC(C(=O)NCCc1nc(-c2nc(C(=O)NCCCNC(C)c3ccccc3)cs2)cs1)C(C)O)C(OC1OC(CO)C(O)C(O)C1OC1OC(CO)C(O)C(OC(N)=O)C1O)c1cnc[nH]1 [Compound 33, 3-((S)-1'-phenylethylamino)propylamino-(amido)N--[2-(1-piperazinyl)ethyl]-BLM]",56,5/9,11/27,41,0.44,6359,5009
"CCCCN(CCCC)CCCNC(=O)C(N)CNC(CC(N)=O)c1nc(N)c(C)c(C(=O)NC(C(=O)NC(C)C(O)C(C)C(=O)NC(C(=O)NCCc2nc(-c3nc(C(=O)NCCCNC(C)c4ccccc4)cs3)cs2)C(C)O)C(OC2OC(CO)C(O)C(O)C2OC2OC(CO)C(O)C(OC(N)=O)C2O)c2cnc[nH]2)n1 [Compound 34, 3-((S)-1'-phenylethylamino)propylamino-(amido)N--[3-(di-n-butylamino)propyl]-BLM]",0,0/8,0/24,0,0,26023,2843
"CCCCNCCCN(C)CCCNC(=O)c1csc(-c2csc(CCNC(=O)C(NC(=O)C(C)C(O)C(C)NC(=O)C(NC(=O)c3nc(C(CC(N)=O)NCC(N)C(=O)NC(C)C)nc(N)c3C)C(OC3OC(CO)C(O)C(O)C3OC3OC(CO)C(O)C(OC(N)=O)C3O)c3cnc[nH]3)C(C)O)n2)n1 (stereo not shown) [Compound 37, 3-[N--methyl-N--(3-n-butylaminopropyl)amino]propylamino-(amido)N--[isopropyl]-BLM]",33,3/9,13/27,48,0.46,13210,20048
"CCCCN(CCCC)CCCNC(=O)C(N)CNC(CC(N)=O)c1nc(N)c(C)c(C(=O)NC(C(=O)NC(C)C(O)C(C)C(=O)NC(C(=O)NCCc2nc(-c3nc(C(=O)NCCCN(C)CCCNCCc4ccc(Cl)cc4)cs3)cs2)C(C)O)C(OC2OC(CO)C(O)C(O)C2OC2OC(CO)C(O)C(OC(N)=O)C2O)c2cnc[nH]2)n1 (stereo not shown) [Compound 46, 3-{N--methyl-N--[3-(2-(p-chlorophenyl)ethyl)aminopropyl]amino}-propylamino-(amido)N--[3-(di-n-butylamino)propyl]-BLM]",–,–,–,–,–,31690,3690
"CCCCNCCCN(C)CCCNC(=O)C(N)CNC(CC(N)=O)c1nc(N)c(C)c(C(=O)NC(C(=O)NC(C)C(O)C(C)C(=O)NC(C(=O)NCCc2nc(-c3nc(C(=O)NCCC[N+](C)(CCCN(Cc4ccccc4)Cc4ccccc4)Cc4ccccc4)cs3)cs2)C(C)O)C(OC2OC(CO)C(O)C(O)C2OC2OC(CO)C(O)C(OC(N)=O)C2O)c2cnc[nH]2)n1 (stereo not shown) [Compound 50, 3-{N--methyl-N--benzyl-N--[3-(dibenzylamino)propyl]amino}-propylamino-(amido)N--[3-[N--methyl-N--(3-n-butylaminopropyl)]-aminopropyl]-BLM]",–,–,–,–,–,1417,376
"CCCCN(CCCC)CCCNC(=O)C(N)CNC(CC(N)=O)c1nc(N)c(C)c(C(=O)NC(C(=O)NC(C)C(O)C(C)C(=O)NC(C(=O)NCCc2nc(-c3nc(C(=O)NCCCN(C)CCCNCc4ccc(C#N)cc4)cs3)cs2)C(C)O)C(OC2OC(CO)C(O)C(O)C2OC2OC(CO)C(O)C(OC(N)=O)C2O)c2cnc[nH]2)n1 (stereo not shown) [Compound 61, 3-{N--methyl-N--[3-(p-cyanobenzylamino)propyl]amino}-propylamino-(amido)N--[3-(di-n-butylamino)propyl]-BLM]",–,–,–,–,–,14730,4755
"Cc1c(N)nc(C(CC(N)=O)NCC(N)C(=O)NCCCNC(C)c2ccccc2)nc1C(=O)NC(C(=O)NC(C)C(O)C(C)C(=O)NC(C(=O)NCCc1nc(-c2nc(C(=O)NCCCN(C)CCCNCc3ccc(C#N)cc3)cs2)cs1)C(C)O)C(OC1OC(CO)C(O)C(O)C1OC1OC(CO)C(O)C(OC(N)=O)C1O)c1cnc[nH]1 [Compound 63, 3-{N--methyl-N--[3-(p-cyanobenzylamino)propyl]amino]propylamino-(amido)N--[(3-((S)-1'-phenylethylamino)propyl]-BLM]",–,–,–,–,–,21877,11056
